Data on four molecules can be found in paper PMC7356998, “Intrinsic Dissolution Rate Profiling of Poorly Water-Soluble Compounds in Biorelevant Dissolution Media” (Pharmaceutics, 2020).

≈ marks a conversion by molar mass, not a printed value. Read-outs that look alike come from different tables or passages of the source.

A short description of data set [1]: Intrinsic dissolution rate from miniaturized discs (DIDR), μDiss Profiler. In kind it is physicochemical. Conditions: disc (D), 100 rpm, mean ± SD; for IDRFaSSIF-V1: FaSSIF-V1 pH 6.5, 37 °C; for IDRFaSSIF-V2: FaSSIF-V2 pH 6.5, 37 °C. As to the method: Dissolution experiments were carried out in a small-scale dissolution apparatus using in situ fiber optic probes to measure the amount of drug dissolved over time by UV absorbance (μDiss Profiler, Pion Inc., Billerica, MA, USA). Drug dissolution was carried out from suspensions (S) or discs (D) depending on the solubility of the compound in the biorelevant media studied (Table 3). […] Standard curves were established by adding aliquots of DMSO stock solutions of the compounds to 3 mL of biorelevant medium, respectively. Dissolution media were prepared following the protocol provided by Biorelevant.com Ltd. and used within 48 h after their preparation. The media were incubated at 37 °C for at least one hour prior to use in the dissolution experiments. The hydrodynamic diameter of the micelles/vesicles formed in the biorelevant media were measured by DLS (Table 2). […] Stirring was turned off while measuring the UV absorbance for each aliquot and the standard curve was established based on six aliquots. […] Intrinsic dissolution rates will henceforth be denoted 'IDR' for both SIDR and DIDR values determined in this study (see Table 3 for details).

A short description of data set [2]: physchem. Conditions: 37 °C, pH 6.5, fassif, thermodynamic from solid.
Method: In these experiments, an excess amount of drug was added to triplicate Eppendorf tubes containing 1 mL of the respective dissolution medium. The tubes were vortexed and placed in a 37 °C incubator. Samples for HPLC analysis were taken 24, 48, and 72 h (triplicates at each time point) after initiation of the experiment to ensure that equilibrium had been reached. The samples were centrifuged at 37 °C, 23,000 g for 10 min (Heraeus Megafuge 8R, Thermo Scientific, Waltham, MA, USA). The supernatant was sampled, diluted 1:1 with acetonitrile, and kept refrigerated until HPLC analysis. […] The injection volumes were 20 μL.
Data set [3] is described as follows: Apparent solubility estimated from dissolution experiments in the μDiss Profiler. In kind it is physicochemical. Conditions: for solubility thermodynamic: thermodynamic from solid. The method, then:
If literature values were not available, Sapp values were estimated from the dissolution experiments either from the steady state concentration reached during dissolution making use of an excess amount material, or by nonlinear regression analysis of the dissolution data in GraphPad Prism 7.04 (GraphPad Software Inc., San Diego, CA, USA). […] In these experiments, an excess amount of drug was added to triplicate Eppendorf tubes containing 1 mL of the respective dissolution medium. The tubes were vortexed and placed in a 37 °C incubator. Samples for HPLC analysis were taken 24, 48, and 72 h (triplicates at each time point) after initiation of the experiment to ensure that equilibrium had been reached. The samples were centrifuged at 37 °C, 23,000 g for 10 min (Heraeus Megafuge 8R, Thermo Scientific, Waltham, MA, USA). The supernatant was sampled, diluted 1:1 with acetonitrile, and kept refrigerated until HPLC analysis. The concentrations of the dissolved drugs were determined using a HPLC (Agilent Technologies 1290 Infinity, Santa Clara, CA, USA) with a Zorbax Eclipse XDB-C18 column (4.6 × 100 mm; Agilent Technologies, Santa Clara, CA, USA) kept at 40 °C. The injection volumes were 20 μL. A mobile phase 0.1% formic acid in acetonitrile: 0.1% formic acid in water 60:40 (v/v) and an isocratic flow rate at 1 mL/min were used for both naproxen and ethinylestradiol. UV absorbances were monitored at a wavelength of 232 nm for naproxen and 315 nm for ethinylestradiol. The retention time was 1.76 min for naproxen and 1.85 min for ethinylestradiol. Dissolution experiments were carried out in a small-scale dissolution apparatus using in situ fiber optic probes to measure the amount of drug dissolved over time by UV absorbance (μDiss Profiler, Pion Inc., Billerica, MA, USA). Drug dissolution was carried out from suspensions (S) or discs (D) depending on the solubility of the compound in the biorelevant media studied (Table 3). […] Glass vials (six in parallel), each containing 15 mL of biorelevant dissolution medium and a crossbar stirrer, were used for the dissolution experiments. The stirring rate was set to 100 rpm. Freshly prepared API suspensions were briefly vortexed to re-disperse any sediments and 500 μL of suspension was added to each vial to initiate the experiment. […] Experiments were run for at least 20 min with data collected every 1 s for the first 8 min and then once per minute for the remaining time. All dissolution experiments from suspensions were carried out in triplicate.

For data set [4] the following is noted: apparent solubility, cited from earlier work.

In the case of `C#C[C@]1(O)CC[C@H]2[C@@H]3CCc4cc(O)ccc4[C@H]3CC[C@@]21C` [Ethinylestradiol], in data set [1], the IDRFaSSIF-V1 is recorded as 3.2 ±0.1 μg/min/cm^2 and the IDRFaSSIF-V2 was determined as 6.6 ± 0.8 μg/min/cm^2. Further, the solubility thermodynamic in data set [2] was 18.7 ± 1.3 µg/mL (≈ 63.1 µM).
Regarding `CC(C)(Oc1ccc(C(=O)c2ccc(Cl)cc2)cc1)C(=O)O` [Fenofibric acid], the solubility thermodynamic was around 100 µg/mL (≈ 314 µM) in data set [3] (FaSSIF-V1, 37 °C, pH 6.5, fassif, FaSSIF-V1 pH 6.5, determined from dissolution experiments in the μDiss Profiler, read-out: SFaSSIF-V1) and 101 ± 3.8 µg/mL (≈ 318 µM) in data set [3] (FeSSIF-V1, 37 °C, pH 5, fessif, FeSSIF-V1 pH 5, determined from dissolution experiments in the μDiss Profiler, read-out: SFeSSIF-V1). Besides, in data set [3] (FaSSIF-V1 pH 6.5, determined from dissolution experiments in the μDiss Profiler), the SFaSSIF-V1 is 104.8 ± 1.0 µg/mL. The molecule also gave an IDRFaSSIF-V1 in data set [1] of 227 ± 33 μg/min/cm^2.
Regarding `COc1ccc2c(c1)c(CC(=O)O)c(C)n2C(=O)c1ccc(Cl)cc1` [Indomethacin], in data set [4] (FaSSIF-V1 pH 6.5), the SFaSSIF-V1 is 421.7 ± 17.6 [7] μg/mL. The SFeSSIF-V1 in data set [4] (FeSSIF-V1 pH 5) was 109.0 ± 7.0 [15] μg/mL. Also, the IDRFaSSIF-V1 in data set [1] amounted to 31 ± 1.3 μg/min/cm^2.
In data set [1], `COc1ccc2cc([C@H](C)C(=O)O)ccc2c1` [Naproxen] returned an IDRFaSSIF-V1 of 144 ± 12 μg/min/cm^2 and an IDRFaSSIF-V2 of 179 ± 11 μg/min/cm^2.
